Measurements from publication PMC2063346, “Cyclosporin A as a multidrug-resistant modulator in patients with renal cell carcinoma treated with teniposide” (British Journal of Cancer, 1997).

Columns and labels:
[1] = system: metastatic renal cell carcinoma; test: Treatment response, phase II (WHO criteria); type: in vivo, patients
Method: (§1) British Joumal of Cancer (1997) 75(5), 715-721 ? […] Sixteen patients initially received VM26 alone (200 mg m-2 day-' i.v.). […] For this reason, new approaches are highly recommended after a first-line treatment, usually interleukin 2 based (Yagoda et al, 1995). […] P-gp deter- mines reduced intracellular drug accumulation and/or altered intracellular drug compartmentation, preventing drugs from reaching the intracellular target site (Skovsgaard, 1978, Schuurhuis et al, 1989). […] Received 2 June 1996 Revised 2 October 1996 Accepted 17 October 1996 Correspondence to: M Boiocchi, Division of Experimental Oncology 1, Centro di Riferimento Oncologico, via Pedemontana Occidentale 12, 33081 Aviano (PN), Italy Although many chemosensitizers have been used successfully in vitro in MDR cell lines, their potential therapeutic role in the clinical setting remains an intriguing issue. […] This could determine alteration in the pharmacokinetics and pharmacodynamics of the cytotoxic agents (Lum et al, 1992; Wilson et al, 1995). […] The study was approved by the local ethics committee and informed consent was obtained from all patients. Treatment protocol The patients received the first course of VM26 (Vumon; Bristol Myers, Rome, Italy) at the dosage of 200 mg m-2 day-' i.v. every 3 weeks. The second cycle (same dosage) was administered in the event of response or stable disease, if no toxicity was documented. In the event of grade 4 toxicity the dose was reduced by 25%. […] The patients were clinically evaluated according to the usual phase II trials criteria (WHO), and blood tests were performed weekly. […] To determine the VM26 level, 5-ml blood samples were drawn from peripheral vein and collected in heparinized glass tubes before treatment at 0 h (i.e. immediately before the begin- ning of i.v. infusion of VM26) and at 1,6, 12, 18, 24,24.5,25,26, 28, 32, 36, 48 and 60h. Plasma samples, which were separated after centrifugation at 1000 g for 10 min, were kept frozen at - 20'C until analysis. Urine samples were collected before, during and after VM26 treatment. Each 12-h sample from well-stirred urine was stored and kept frozen at -20?C until analysis. […] These samples were frozen at -70?C until analysis. Drug assays The method used to determine VM26 in plasma samples was that described by Evans et al (1982). Briefly, 1 ml of plasma or urine was extracted with 8 ml of chloroform containing VP16 (100 gl of a 200-,ug ml solution) as internal standard. After 20-min shaking at +4?C, samples were centrifuged at 1500 g for 20 min at +4?C. The organic phase was dried under vacuum and then redissolved with 200 gl of methanol; 50 µl of this solution as injected into an LKB-Pharmacia (Cambridge, UK) high-performance liquid chro- matography (HPLC) system equipped with an absorbance detector set at 254 nm. Separation was achieved using an isocratic solvent system of water-acetonitrile-acetic acid (64:35:1) at a flow of 1 ml min-, using a 300 x 3.9-mm long ,uBondapak phenyl column (Waters, New York, NY, USA). Peak areas were quantitated with an LKB integrator. […] To calculate the concentrations of VM26, the internal standard method was adopted. […] Pharmacokinetic analyses To define the plasma concentration-time function and to estimate pharmacokinetic parameters of VM26 for each patient, a compart- mental model was adopted. Drug infusion and non-saturable elim- ination processes were considered zero-order and first-order processes respectively. Estimates of pharmacokinetic parameters [apparent volume of distribution (V); elimination half-life (t1,2p); systemic clearance (CI); maximum drug concentration (Cmax); and area under curve (AUC)] of VM26 and the numerical validation of the model were obtained by PCNONLIN 4.0, a non-linear regression program.

[2] = VM26 plasma pharmacokinetics alone and with CSA (HPLC, compartmental model); type: in vivo, patients
Method: as §1

[3] = in vivo
Method: as §1

[4] = Total and renal clearance of VM26 (urine collection, seven patients); type: in vivo
Method: British Joumal of Cancer (1997) 75(5), 715-721 ? […] Sixteen patients initially received VM26 alone (200 mg m-2 day-' i.v.). […] For this reason, new approaches are highly recommended after a first-line treatment, usually interleukin 2 based (Yagoda et al, 1995). […] P-gp deter- mines reduced intracellular drug accumulation and/or altered intracellular drug compartmentation, preventing drugs from reaching the intracellular target site (Skovsgaard, 1978, Schuurhuis et al, 1989). […] Received 2 June 1996 Revised 2 October 1996 Accepted 17 October 1996 Correspondence to: M Boiocchi, Division of Experimental Oncology 1, Centro di Riferimento Oncologico, via Pedemontana Occidentale 12, 33081 Aviano (PN), Italy Although many chemosensitizers have been used successfully in vitro in MDR cell lines, their potential therapeutic role in the clinical setting remains an intriguing issue. […] The patients were clinically evaluated according to the usual phase II trials criteria (WHO), and blood tests were performed weekly. […] The organic phase was dried under vacuum and then redissolved with 200 gl of methanol; 50 µl of this solution as injected into an LKB-Pharmacia (Cambridge, UK) high-performance liquid chro- matography (HPLC) system equipped with an absorbance detector set at 254 nm. […] Peak areas were quantitated with an LKB integrator. […]

[5] = nine patients after two courses of VM26 alone
[6] = VM26 alone, first cycle, 16 patients

AUC of VM26, median (range) [2, 6]: 290.3 (168.4-791.0) mg l-1 h
Cl of VM26, median (range) [2, 6]: 0.62 (0.25-1.2) l h-1 m-2
Cmax of VM26, median (range) [2, 6]: 10.9 (7.0-22.3) mg l-1
V of VM26, median (range) [2, 6]: 5.5 (4.4-9.0) l m-2
t1/2 of VM26, median (range) [2, 6]: 6.8(2.8-14.8) h
variation in the paired AUC of VM26 ([2]; after CSA versus VM26 alone): 50%
decrease of systemic clearance of VM26 ([2]; when CSA was added, P<0.01): 1.4 fold
ANC/AUC ratio (nadir ANC standardized for AUC of VM26) [3]: 7.38 ± 5.51
bilirubin (in the normal range) [3]: < 1.5 mg 100 ml-1
cutaneous eruption, patients [3]: one patient
cycles with significant vomiting, mucositis or constipation [3]: < 15 % of cycles
grade 3 neutropenia, patients [3]: three
hair loss, patients [3]: all patients
nadir neutrophil count (ANC), median [3]: 1900 µL⁻¹
nadir neutrophil count (ANC), range [3]: 200 to 6000 µL⁻¹
fraction of total clearance resulting from renal clearance ([4]; VM26 alone): < 6%
Decrease of total Cl of VM26 ([4]; VM26 plus CSA versus VM26 alone, seven patients, P<0.05): 21%
Structure (SMILES): COc1cc([C@@H]2c3cc4c(cc3[C@@H](O[C@@H]3O[C@@H]5CO[C@@H](c6cccs6)O[C@H]5[C@H](O)[C@H]3O)[C@H]3COC(=O)[C@H]23)OCO4)cc(OC)c1O [VM26, teniposide]
objective responses ([1]; VM26 alone 200 mg m-2 day-1 i.v., sixteen patients): No objective responses
progressive disease, patients [1, 5]: six
stable disease, patients [1, 5]: three
Response (VM26) ([1]; patient 1, 2 cycles): SD (stable disease)
Response (VM26) ([1]; patient 2, 2 cycles): PD (progressive disease)
Response (VM26) ([1]; patient 3, 2 cycles): PD (progressive disease)
Response (VM26) ([1]; patient 4, 2 cycles): PD (progressive disease)
Response (VM26) ([1]; patient 5, 2 cycles): SD (stable disease)
Response (VM26) ([1]; patient 6, 2 cycles): SD (stable disease)
Response (VM26) ([1]; patient 7, 2 cycles): PD (progressive disease)
Response (VM26) ([1]; patient 8, 2 cycles): PD (progressive disease)
Response (VM26) ([1]; patient 9, 2 cycles): PD (progressive disease)
